Assay results published in ChEMBL document CHEMBL4800722, “Data for DCP probe BI 605906” (2021).

Columns and labels:
[1] = molecular target: Serine/threonine-protein kinase WNK3 (Homo sapiens) (UniProt Q9BYP7); assay: WNK3 Invitrogen Lab (UK) kinase screen (BI); conditions: Compound concentration 1.0 uM
[2] = molecular target: DNA-dependent protein kinase catalytic subunit (Homo sapiens) (UniProt P78527); conditions: Compound concentration 1.0 uM
[3] = molecular target: Ribosomal protein S6 kinase alpha-5 (Homo sapiens) (UniProt O75582); assay: MSK1 DUNDEE kinase screen (BI); conditions: Compound concentration 10.0 uM
Chain of Ribosomal protein S6 kinase alpha-5 (Homo sapiens) (O75582 whole entry, looked up): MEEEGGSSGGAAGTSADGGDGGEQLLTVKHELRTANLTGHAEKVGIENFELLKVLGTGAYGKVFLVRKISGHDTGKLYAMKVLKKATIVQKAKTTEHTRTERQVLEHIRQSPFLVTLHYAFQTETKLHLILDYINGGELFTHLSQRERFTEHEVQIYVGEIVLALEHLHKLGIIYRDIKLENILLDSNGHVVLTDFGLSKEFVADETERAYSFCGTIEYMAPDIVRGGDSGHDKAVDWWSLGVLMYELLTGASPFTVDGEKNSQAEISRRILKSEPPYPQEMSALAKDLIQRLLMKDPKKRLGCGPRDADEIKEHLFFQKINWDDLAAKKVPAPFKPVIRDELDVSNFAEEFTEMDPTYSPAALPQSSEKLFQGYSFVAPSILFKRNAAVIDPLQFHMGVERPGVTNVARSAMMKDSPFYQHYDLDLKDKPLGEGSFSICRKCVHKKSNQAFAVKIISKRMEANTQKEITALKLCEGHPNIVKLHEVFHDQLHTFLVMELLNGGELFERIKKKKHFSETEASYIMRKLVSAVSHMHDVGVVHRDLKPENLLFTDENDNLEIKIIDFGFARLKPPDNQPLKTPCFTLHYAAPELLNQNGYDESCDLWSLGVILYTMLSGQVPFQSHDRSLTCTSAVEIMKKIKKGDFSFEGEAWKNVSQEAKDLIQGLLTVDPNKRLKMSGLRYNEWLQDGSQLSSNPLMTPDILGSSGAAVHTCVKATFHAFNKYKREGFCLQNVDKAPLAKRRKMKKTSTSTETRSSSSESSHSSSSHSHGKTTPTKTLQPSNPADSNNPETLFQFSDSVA

[4] = molecular target: Mu-type opioid receptor (Homo sapiens) (UniProt P35372); conditions: Compound concentration 10.0 uM
[5] = molecular target: Macrophage-stimulating protein receptor (Homo sapiens) (UniProt Q04912); conditions: Compound concentration 1.0 uM
[6] = molecular target: cAMP-dependent protein kinase catalytic subunit beta (Homo sapiens) (UniProt P22694); assay: PRKACB (PRKAC BET Invitrogen Lab (UK) kinase screen (BI); conditions: Compound concentration 1.0 uM
[7] = molecular target: Tyrosine-protein kinase ABL2 (Homo sapiens) (UniProt P42684); conditions: Compound concentration 1.0 uM
[8] = molecular target: Leucine-rich repeat serine/threonine-protein kinase 2 (Homo sapiens) (UniProt Q5S007); assay: LRRK2_FL Invitrogen Lab (UK) kinase screen (BI); conditions: Compound concentration 1.0 uM
Chain of Leucine-rich repeat serine/threonine-protein kinase 2 (Homo sapiens) (Q5S007 whole entry): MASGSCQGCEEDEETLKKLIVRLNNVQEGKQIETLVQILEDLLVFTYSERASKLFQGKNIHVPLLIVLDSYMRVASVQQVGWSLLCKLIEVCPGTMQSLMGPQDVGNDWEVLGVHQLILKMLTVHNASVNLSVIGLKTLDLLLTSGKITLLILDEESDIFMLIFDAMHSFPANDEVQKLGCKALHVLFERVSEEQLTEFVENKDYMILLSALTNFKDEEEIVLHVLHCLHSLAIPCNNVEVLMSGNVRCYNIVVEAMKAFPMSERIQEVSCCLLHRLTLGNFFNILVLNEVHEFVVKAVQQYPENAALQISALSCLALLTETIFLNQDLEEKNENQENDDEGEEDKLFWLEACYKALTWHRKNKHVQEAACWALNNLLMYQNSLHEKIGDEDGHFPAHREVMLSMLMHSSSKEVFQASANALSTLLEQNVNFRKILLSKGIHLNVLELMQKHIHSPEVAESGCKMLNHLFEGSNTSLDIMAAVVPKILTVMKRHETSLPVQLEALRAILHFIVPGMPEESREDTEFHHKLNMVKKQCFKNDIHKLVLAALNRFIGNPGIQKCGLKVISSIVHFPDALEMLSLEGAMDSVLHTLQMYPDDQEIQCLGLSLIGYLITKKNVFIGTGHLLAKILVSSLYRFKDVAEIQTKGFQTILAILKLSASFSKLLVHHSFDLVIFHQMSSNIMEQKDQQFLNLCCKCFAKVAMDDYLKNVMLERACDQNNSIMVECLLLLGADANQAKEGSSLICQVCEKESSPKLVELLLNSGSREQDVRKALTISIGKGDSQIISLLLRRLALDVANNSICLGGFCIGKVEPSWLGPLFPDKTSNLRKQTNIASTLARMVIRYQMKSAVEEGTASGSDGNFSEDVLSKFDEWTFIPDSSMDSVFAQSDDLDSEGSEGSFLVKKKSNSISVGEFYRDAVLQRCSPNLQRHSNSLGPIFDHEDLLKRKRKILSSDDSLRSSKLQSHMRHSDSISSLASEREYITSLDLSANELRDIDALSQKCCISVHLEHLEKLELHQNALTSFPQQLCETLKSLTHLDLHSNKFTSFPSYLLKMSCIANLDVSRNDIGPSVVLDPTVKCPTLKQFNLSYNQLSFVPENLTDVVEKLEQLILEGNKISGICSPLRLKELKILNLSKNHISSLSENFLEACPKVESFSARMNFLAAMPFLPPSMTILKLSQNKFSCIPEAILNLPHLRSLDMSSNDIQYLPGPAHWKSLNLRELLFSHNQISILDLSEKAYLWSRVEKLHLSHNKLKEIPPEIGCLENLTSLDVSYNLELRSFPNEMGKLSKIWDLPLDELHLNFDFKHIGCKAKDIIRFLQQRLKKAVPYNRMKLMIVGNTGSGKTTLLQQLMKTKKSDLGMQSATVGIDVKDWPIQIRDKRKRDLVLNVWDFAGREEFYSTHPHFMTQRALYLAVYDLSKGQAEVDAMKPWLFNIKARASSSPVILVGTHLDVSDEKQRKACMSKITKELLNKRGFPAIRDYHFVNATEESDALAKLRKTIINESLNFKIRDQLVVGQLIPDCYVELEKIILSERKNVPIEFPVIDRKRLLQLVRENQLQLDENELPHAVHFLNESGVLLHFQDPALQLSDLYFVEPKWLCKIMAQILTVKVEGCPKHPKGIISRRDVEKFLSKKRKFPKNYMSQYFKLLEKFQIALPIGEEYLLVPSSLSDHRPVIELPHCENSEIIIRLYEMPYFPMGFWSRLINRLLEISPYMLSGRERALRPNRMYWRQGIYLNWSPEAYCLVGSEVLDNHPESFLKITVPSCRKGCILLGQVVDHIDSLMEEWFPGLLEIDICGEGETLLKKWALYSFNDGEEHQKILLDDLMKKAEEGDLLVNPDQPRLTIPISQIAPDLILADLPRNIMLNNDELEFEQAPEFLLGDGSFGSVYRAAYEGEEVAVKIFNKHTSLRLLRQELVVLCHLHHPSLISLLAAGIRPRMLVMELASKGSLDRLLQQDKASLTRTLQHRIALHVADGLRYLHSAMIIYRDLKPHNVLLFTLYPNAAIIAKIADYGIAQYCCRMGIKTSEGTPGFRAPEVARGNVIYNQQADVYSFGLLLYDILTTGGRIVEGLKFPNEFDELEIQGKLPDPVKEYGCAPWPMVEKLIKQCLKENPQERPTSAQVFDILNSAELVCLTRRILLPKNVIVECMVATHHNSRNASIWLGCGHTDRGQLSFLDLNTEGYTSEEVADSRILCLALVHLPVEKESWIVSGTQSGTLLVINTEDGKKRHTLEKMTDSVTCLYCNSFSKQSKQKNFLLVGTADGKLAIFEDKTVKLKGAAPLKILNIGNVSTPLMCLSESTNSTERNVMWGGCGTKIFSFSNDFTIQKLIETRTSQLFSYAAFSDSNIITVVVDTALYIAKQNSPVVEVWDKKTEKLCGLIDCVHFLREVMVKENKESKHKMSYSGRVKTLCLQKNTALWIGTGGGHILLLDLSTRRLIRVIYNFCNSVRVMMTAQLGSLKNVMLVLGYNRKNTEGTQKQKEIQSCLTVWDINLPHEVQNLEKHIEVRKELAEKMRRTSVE

[9] = molecular target: Protein kinase C theta type (Homo sapiens) (UniProt Q04759); conditions: Compound concentration 1.0 uM
[10] = molecular target: Eukaryotic elongation factor 2 kinase (Homo sapiens) (UniProt O00418); conditions: Compound concentration 1.0 uM
[11] = molecular target: Dual specificity protein kinase CLK3 (Homo sapiens) (UniProt P49761); assay: CLK3 Invitrogen Lab (UK) kinase screen (BI); conditions: Compound concentration 1.0 uM
[12] = molecular target: Casein kinase I isoform delta (Homo sapiens) (UniProt P48730); conditions: Compound concentration 1.0 uM
[13] = molecular target: Receptor-interacting serine/threonine-protein kinase 3 (Homo sapiens) (UniProt Q9Y572); conditions: Compound concentration 1.0 uM
[14] = molecular target: Calcium/calmodulin-dependent protein kinase type 1D (Homo sapiens) (UniProt Q8IU85); conditions: Compound concentration 1.0 uM
[15] = molecular target: Mitogen-activated protein kinase kinase kinase kinase 1 (Homo sapiens) (UniProt Q92918); conditions: Compound concentration 1.0 uM
[16] = molecular target: Serine/threonine-protein kinase 3 (Homo sapiens) (UniProt Q13188); assay: STK3 Invitrogen Lab (UK) kinase screen (BI); conditions: Compound concentration 1.0 uM
[17] = molecular target: Misshapen-like kinase 1 (Homo sapiens) (UniProt Q8N4C8); conditions: Compound concentration 1.0 uM
[18] = molecular target: Acetylcholinesterase (Homo sapiens) (UniProt P22303); conditions: Compound concentration 10.0 uM
[19] = molecular target: Phospholipase A2 (Sus scrofa) (UniProt A0A8D1VEY7); conditions: Compound concentration 10.0 uM
[20] = molecular target: CDK17/Cyclin-Y (Homo sapiens) (UniProt Q00537+Q8ND76); assay: CDK17/CYCLIN Y Invitrogen Lab (UK) kinase screen (BI); assay type: protein-complex assay; conditions: Compound concentration 1.0 uM
[21] = molecular target: Death-associated protein kinase 3 (Homo sapiens) (UniProt O43293); conditions: Compound concentration 1.0 uM
[22] = molecular target: 5-hydroxytryptamine receptor 6 (Homo sapiens) (UniProt P50406); conditions: Compound concentration 10.0 uM
[23] = molecular target: Serine/threonine-protein kinase N2 (Homo sapiens) (UniProt Q16513); assay: PKN2 Invitrogen Lab (UK) kinase screen (BI); conditions: Compound concentration 1.0 uM
[24] = molecular target: Tyrosine-protein kinase receptor UFO (Homo sapiens) (UniProt P30530)
Chain of Tyrosine-protein kinase receptor UFO (Homo sapiens) (P30530 whole entry): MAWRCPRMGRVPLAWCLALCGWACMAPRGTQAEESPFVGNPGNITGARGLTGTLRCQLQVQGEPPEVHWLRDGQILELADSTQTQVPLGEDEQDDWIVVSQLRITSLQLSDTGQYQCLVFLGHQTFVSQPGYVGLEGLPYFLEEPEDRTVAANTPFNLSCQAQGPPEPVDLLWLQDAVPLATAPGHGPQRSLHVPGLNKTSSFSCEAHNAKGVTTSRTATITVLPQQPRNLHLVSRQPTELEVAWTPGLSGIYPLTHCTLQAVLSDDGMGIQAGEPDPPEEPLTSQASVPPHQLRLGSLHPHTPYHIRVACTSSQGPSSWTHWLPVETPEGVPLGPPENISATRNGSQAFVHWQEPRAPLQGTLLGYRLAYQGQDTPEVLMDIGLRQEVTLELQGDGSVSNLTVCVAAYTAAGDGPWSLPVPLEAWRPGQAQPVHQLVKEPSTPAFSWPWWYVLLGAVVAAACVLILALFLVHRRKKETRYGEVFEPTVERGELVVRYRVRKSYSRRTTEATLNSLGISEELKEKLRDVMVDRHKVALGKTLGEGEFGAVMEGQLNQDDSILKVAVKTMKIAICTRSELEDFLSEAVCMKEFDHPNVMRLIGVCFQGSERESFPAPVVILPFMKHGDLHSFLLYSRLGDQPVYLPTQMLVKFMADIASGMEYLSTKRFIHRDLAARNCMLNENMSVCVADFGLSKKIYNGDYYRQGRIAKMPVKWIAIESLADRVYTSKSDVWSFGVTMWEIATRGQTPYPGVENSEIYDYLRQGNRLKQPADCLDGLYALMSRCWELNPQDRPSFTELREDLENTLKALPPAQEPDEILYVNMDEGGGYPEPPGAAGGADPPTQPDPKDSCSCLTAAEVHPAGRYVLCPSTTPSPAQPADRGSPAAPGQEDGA

[25] = molecular target: Interleukin-1 receptor-associated kinase 4 (Homo sapiens) (UniProt Q9NWZ3)
Chain of Interleukin-1 receptor-associated kinase 4 (Homo sapiens) (Q9NWZ3 whole entry): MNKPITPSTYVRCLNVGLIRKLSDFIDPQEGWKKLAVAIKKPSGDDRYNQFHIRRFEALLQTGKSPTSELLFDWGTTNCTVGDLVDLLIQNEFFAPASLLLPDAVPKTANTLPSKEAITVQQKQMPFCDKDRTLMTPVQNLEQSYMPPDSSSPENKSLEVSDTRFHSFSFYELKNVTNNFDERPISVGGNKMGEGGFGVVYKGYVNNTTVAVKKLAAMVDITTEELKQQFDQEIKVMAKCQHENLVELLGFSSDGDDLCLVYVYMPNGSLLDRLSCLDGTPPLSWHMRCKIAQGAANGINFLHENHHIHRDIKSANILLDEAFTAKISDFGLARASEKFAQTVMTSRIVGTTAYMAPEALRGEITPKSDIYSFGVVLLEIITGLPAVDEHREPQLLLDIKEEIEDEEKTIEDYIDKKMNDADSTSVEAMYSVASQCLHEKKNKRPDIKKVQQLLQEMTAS

[26] = molecular target: Serine/threonine-protein kinase pim-2 (Homo sapiens) (UniProt Q9P1W9); conditions: Compound concentration 1.0 uM
Chain of Serine/threonine-protein kinase pim-2 (Homo sapiens) (Q9P1W9 whole entry, looked up): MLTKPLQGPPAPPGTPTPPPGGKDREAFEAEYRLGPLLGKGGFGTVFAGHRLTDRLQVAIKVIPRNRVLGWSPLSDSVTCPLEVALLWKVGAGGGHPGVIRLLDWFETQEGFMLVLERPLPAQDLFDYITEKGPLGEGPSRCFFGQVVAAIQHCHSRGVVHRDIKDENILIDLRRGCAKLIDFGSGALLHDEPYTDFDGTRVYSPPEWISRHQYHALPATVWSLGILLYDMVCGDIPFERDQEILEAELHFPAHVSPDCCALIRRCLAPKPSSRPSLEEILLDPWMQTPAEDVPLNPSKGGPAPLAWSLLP

[27] = molecular target: Rhodopsin kinase GRK7 (Homo sapiens) (UniProt Q8WTQ7); conditions: Compound concentration 1.0 uM
[28] = molecular target: MAP kinase-interacting serine/threonine-protein kinase 1 (Homo sapiens) (UniProt Q9BUB5); assay: MNK1 DUNDEE kinase screen (BI); conditions: Compound concentration 10.0 uM
[29] = molecular target: MAP kinase-activated protein kinase 5 (Homo sapiens) (UniProt Q8IW41); conditions: Compound concentration 1.0 uM
[30] = molecular target: AP2-associated protein kinase 1 (Homo sapiens, UniProt Q2M2I8); assay: NanoBRET (SGC-FFM) (AAK1)
[31] = molecular target: Serine/threonine-protein kinase PLK4 (Homo sapiens) (UniProt O00444); conditions: Compound concentration 1.0 uM
[32] = molecular target: Serine/threonine-protein kinase DCLK1 (Homo sapiens) (UniProt O15075); conditions: Compound concentration 1.0 uM
[33] = molecular target: Alpha-1A adrenergic receptor (Homo sapiens) (UniProt P35348); conditions: Compound concentration 10.0 uM
[34] = molecular target: Serine/threonine-protein kinase VRK2 (Homo sapiens) (UniProt Q86Y07); conditions: Compound concentration 1.0 uM
[35] = molecular target: Adrenergic receptor alpha-2 (Rattus norvegicus) (UniProt P22086+P19328+P22909); assay: ALPHA2/R Eurofins SafetyScreen44 (BI); assay type: protein assay
[36] = molecular target: Phosphatidylinositol 4-phosphate 3-kinase C2 domain-containing subunit beta (Homo sapiens) (UniProt O00750); conditions: Compound concentration 1.0 uM
[37] = molecular target: Myosin light chain kinase, smooth muscle (Homo sapiens) (UniProt Q15746); assay: SMMLCK DUNDEE kinase screen (BI); conditions: Compound concentration 10.0 uM
[38] = molecular target: Serine/threonine-protein kinase N1 (Homo sapiens) (UniProt Q16512); conditions: Compound concentration 1.0 uM
[39] = molecular target: Calcium/calmodulin-dependent protein kinase kinase 2 (Homo sapiens) (UniProt Q96RR4); conditions: Compound concentration 1.0 uM
[40] = molecular target: AMPK alpha1/beta2/gamma1 (Homo sapiens) (UniProt O43741+P54619+Q13131); conditions: Compound concentration 1.0 uM
[41] = molecular target: D(1A) dopamine receptor (Homo sapiens) (UniProt P21728); conditions: Compound concentration 10.0 uM
[42] = molecular target: Fibroblast growth factor receptor 2 (Homo sapiens) (UniProt P21802); conditions: Compound concentration 1.0 uM
[43] = molecular target: Serine/threonine-protein kinase 38 (Homo sapiens) (UniProt Q15208); assay: STK38 (NDR) Invitrogen Lab (UK) kinase screen (BI); conditions: Compound concentration 1.0 uM
[44] = molecular target: Megakaryocyte-associated tyrosine-protein kinase (Homo sapiens) (UniProt P42679); conditions: Compound concentration 1.0 uM

CCC(F)(F)c1cc(N2CCC(S(C)(=O)=O)CC2)nc2sc(C(N)=O)c(N)c12 [BI-605906]
residual activity [1]: 102% | residual activity [2]: 90% | residual activity [3]: 86.6% | inhibition [4]: 5.18% | residual activity [5]: 105% | residual activity [6]: 77% | residual activity [7]: 91% | residual activity [8]: 62% | residual activity [9]: 101% | residual activity [10]: 98% | residual activity [11]: 102% | residual activity [12]: 100% | residual activity [13]: 100% | residual activity [14]: 98% | residual activity [15]: 82% | residual activity [16]: 103% | residual activity [17]: 96% | residual activity [18]: 87% | residual activity [19]: 96% | residual activity [20]: 88% | residual activity [21]: 101% | inhibition [22]: 8.77% | residual activity [23]: 86% | residual activity ([24]; Compound concentration 1.0 uM): 98% | residual activity ([24]; Compound concentration 10.0 uM): 85% | residual activity ([25]; Compound concentration 1.0 uM): 100% | residual activity ([25]; Compound concentration 10.0 uM): 90% | residual activity [26]: 99% | residual activity [27]: 101% | residual activity [28]: 93.8% | residual activity [29]: 92% | IC50 [30]: 7 µM (not active) | residual activity [31]: 89% | residual activity [32]: 99% | inhibition [33]: 18.9% | residual activity [34]: 82% | residual activity ([35]; Compound concentration 10.0 uM): 103% | residual activity ([35]; Compound concentration 100.0 uM): 102% | residual activity [36]: 101% | residual activity [37]: 57.7% | residual activity [38]: 87% | residual activity [39]: 93% | residual activity [40]: 91% | residual activity [41]: 101% | residual activity [42]: 94% | residual activity [43]: 83% | residual activity [44]: 101%
